Measured values from PubChem BioAssay (NCI).
“And” between values parts separate entries of the source, which are not always exact repeats. Equal entries are not always repeated.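 The compound was tested at five concentrations on cells cultured in 96-well plates, with a 48-hour exposure period. The concentration for 50% growth inhibition is given as GI50. TGI: total growth inhibition.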 *1 amine or outer side, *2 acyl side, *3 side chain or, on linkers, in order; H or OH if unused. Where a SMILES comes first, the peptide text is derived from it. Bridges are numbered along the chain shown (N, C = ends). Roman numbers before positions name the chains, in order. [ ]: non-standard residue; d: D form. Actinocin(9to1) = Cc1c2oc3c(C)ccc(C(=O)[*:1])c3nc-2c(C(=O)[*:2])c(N)c1=O; Hyp = O=C(O)[CH]1C[CH](O)CN1; NMeV = CN[CH](C(=O)O)C(C)C; Sar = CNCC(=O)O

Columns and labels:
Assay in all cases: inhibition of tumour cell growth, NCI panel, 48 h
[1] = system: UACC-257 melanoma
[2] = system: HS 578T breast
[3] = system: DU-145 prostate
[4] = system: M19-MEL melanoma
[5] = system: DMS 273 small cell lung
[6] = system: LXFL 529 NSCLC
[7] = system: DMS 114 small cell lung
[8] = system: KM20L2 colon
[9] = system: XF 498 CNS
[10] = system: DLD-1 colon

Structure (SMILES)	TGI [1]	TGI [2]	TGI [3]	also measured
c1ccc(Nc2nn3c(CCCCCCCCc4nnc5sc(Nc6ccccc6)nn45)nnc3s2)cc1	> 100 µM	> 100 µM	> 100 µM	
CCOC1NC(=O)Oc2cc3ccccc3cc21 (stereo not drawn)	> 100 µM	> 100 µM	> 100 µM	
C=CCOC(OCC=C)/C(Br)=C/C	> 100 µM	72.2 µM	> 100 µM	
O=c1c2cnccc2cc2c3ccccc3ccn12	> 100 µM	> 100 µM	> 100 µM	
Cc1c2oc3c(C)ccc(C(=O)NC4C(=O)NC(C(C)C)C(=O)N5CC(O)CC5C(=O)N(C)CC(=O)N(C)C(C(C)C)C(=O)OC4C)c3nc-2c(C(=O)NC2C(=O)NC(C(C)C)C(=O)N3CC(O)CC3C(=O)N(C)CC(=O)N(C)C(C(C)C)C(=O)OC2C)c(N)c1=O (stereo not drawn) (I: TV[Hyp][Sar][NMeV] / II: TV[Hyp][Sar][NMeV]; ester I:1-I:C, II:1-II:C; linker I:N-II:N via Actinocin(9to1); configuration not given here)	> 1 µM	> 1 µM	> 1 µM	
Nc1ccc2ccc(N3CCNCC3)nc2n1	> 100 µM	> 100 µM	> 100 µM	
CCCCc1ccc(Nc2nc(Cl)c3c(ncn3C3CC(Oc4ccc(C)cc4)C(COc4ccc(C)cc4)O3)n2)cc1 (stereo not drawn)	> 100 µM	> 100 µM	> 100 µM	
Cc1cc2c(c(S(=O)(=O)c3ccccc3[N+](=O)[O-])c1)NCCC2		> 100 µM	> 100 µM	
C=C(C)[C@H]1C2=CC(C)=C(O2)[C@@H](O)[C@H](C(=C)C)CCC2=C[C@H]1OC2=O	> 100 µM	> 100 µM	> 100 µM	
CN(CCCNC(=O)c1nn(C)c2c1Cc1ccccc1-2)CCCNC(=O)c1nn(C)c2c1Cc1ccccc1-2	30.1 µM	42.1 µM	32.4 µM	
Cc1ccc(S(=O)(=O)C2=c3nc4ccccc4cc3=C3C(=O)c4ccccc4C(=O)C32)cc1 (stereo not drawn)	> 100 µM			TGI [4]: > 100 µM; TGI [5]: > 100 µM; TGI [6]: > 100 µM; TGI [7]: > 100 µM; TGI [8]: > 100 µM; TGI [9]: > 100 µM; TGI [10]: > 100 µM
O=C(c1cccs1)N1CCCN(C(=O)c2cccs2)C1=S	> 100 µM	> 100 µM	> 100 µM	
C/C=C(\C)C(=O)O[C@@H]1CC(C)(C)CC2C3=CCC4[C@]56CC[C@](O)(OC5)C(C)(C)C6CC[C@@]4(C)C3(C)CC[C@]21C(=O)O (stereo partly drawn)	> 100 µM	> 100 µM	> 100 µM	
O=[N+]([O-])c1cc(F)ccc1S(=O)(=O)c1ccccc1	> 10 µM	> 10 µM	> 10 µM	
COc1cc(C2C3=C(CCCC3=O)N(c3ccc(C)cc3)C3=C2C(=O)CCC3)c([N+](=O)[O-])cc1OC		> 100 µM		
COc1ccc2oc(-c3ccc(OC)c(OC)c3OC)cc(=O)c2c1	> 100 µM			TGI [4]: > 100 µM; TGI [6]: > 100 µM; TGI [7]: > 100 µM; TGI [8]: 63.1 µM; TGI [9]: > 100 µM; TGI [10]: > 100 µM
Cc1cc2n[n+]3[n-]cc(-c4ccccc4)n3c2cc1[N+](=O)[O-]	> 100 µM	> 100 µM	> 100 µM	
O=c1[nH]c2nccn2c2c1SCCN2	> 100 µM	> 100 µM	> 100 µM	
COc1cc(Cc2cnc(N)nc2N)cc(OC)c1OCCCNc1ccc([N+](=O)[O-])cc1	25.9 µM	> 100 µM	30.2 µM	

Structure (SMILES)	TGI [1]	TGI [2]	TGI [3]	also measured
COc1ccc2c(c1)NC1(CCN(CCCC(=O)c3ccc(F)cc3)CC1)N=N2	46.1 µM		46.8 µM	
COC(=O)C1=C(O)CCCC(C2CCCCC(=O)C2C(=O)OC)=C1 (stereo not drawn)	> 100 µM		> 100 µM	
CN1CCc2c(sc3ncn(Nc4ccc(Cl)cc4)c(=N)c23)C1	> 100 µM	> 100 µM	> 100 µM	
O=C1CSC(c2ccc([N+](=O)[O-])cc2)N1c1ccc(-c2ccc(-n3c(-c4ccccc4)nc4ccccc4c3=O)cc2)cc1 (stereo not drawn)	> 100 µM	> 100 µM	> 100 µM	
CCN(CC)CC1CN=C(N)O1 (stereo not drawn)	> 100 µM		> 100 µM	
COC(=O)c1c2c(cc3c1CC1(Cc4cc5c(c(C(C)=O)c4C1)CCCC5)C3)CCCC2 (stereo not drawn)	> 100 µM	> 100 µM		
Cc1nc2ccc(F)cc2c(Cl)c1CCCl	> 100 µM	> 100 µM	> 100 µM	
O=[N+]([O-])/C=C(\CS(=O)(=O)c1ccccc1)c1ccc2c(c1)OCO2		> 100 µM	> 100 µM	
C=CCOC(=O)N1c2ccc(O)cc2[C@@]23O[C@@]24[C@@H]1C#C/C=C\C#C[C@]3(O)C(OC)(OC)C[C@@H]4C	44.1 µM	90.9 µM	> 100 µM	
COc1ccc(-c2ncn(C[Si](C)(C)C)c2-c2ccc(OC)cc2)cc1	16.7 µM	37.1 µM		
CCC(CC)(CO)CNc1cc(Cl)nc(N)n1	> 100 µM	> 100 µM	> 100 µM	
N/C(=N\Nc1ccc(Cl)cc1)c1cnccn1	> 100 µM	> 100 µM	> 100 µM	
C#C[C@@]1(O)CCCC2=CC3(CC[C@]21C)SCCS3	> 100 µM	> 100 µM	> 100 µM	
COC(=O)CCNc1c2ccccc2nc2cccc([N+](=O)[O-])c12	0.00704 µM and 0.0476 µM	0.0128 µM and 0.0651 µM	19.6 µM	GI50 [1]: 2.3 nM and 12.2 nM
CCN(CC)CCn1c(=O)c2c(C)c3oc4ccccc4oc3c(C)c2c1=O	> 100 µM	> 100 µM		
CN(C)CCNC(=O)c1cccc2nc3c(C(=O)NCCN(C)C)cccc3nc12	4.08 µM	7.73 µM	12.8 µM	
Cc1ccc(-c2cc[n+]3c(n2)oc2ccccc23)cc1	59.2 µM	81.5 µM	> 100 µM	
O=C(C/C(=N/O)C(F)(F)F)c1cccs1	> 100 µM	> 100 µM	> 100 µM	
CCCCCCCCCCCCCCCCCCNC(=S)/N=C/c1c(O)c2ccccc2[nH]c1=O	37.1 µM		29.7 µM	
